According to PMC8800111 (The Journal of Biological Chemistry, 2021):

Assays:
Type in all cases: cell-based
[1] = molecular target: proteins of U3A human fibrosarcoma cells (4462 proteins detected) (Homo sapiens, UniProt O95297); conditions: protein MPZL1; U3A, 10 μM, 2 h
[2] = molecular target: proteins of U3A human fibrosarcoma cells (4462 proteins detected) (Homo sapiens, UniProt P08758); conditions: protein ANXA5, U3A cells
[3] = molecular target: proteins of U3A human fibrosarcoma cells (4462 proteins detected) (Homo sapiens, UniProt P16298); conditions: protein PPP3CB; U3A cells
[4] = molecular target: proteins of U3A human fibrosarcoma cells (4462 proteins detected) (Homo sapiens, UniProt P22059); conditions: protein OSBP; soluble abundance after heat, U3A cells
[5] = molecular target: proteins of U3A human fibrosarcoma cells (4462 proteins detected) (Homo sapiens, UniProt P22413); conditions: protein ENPP1; U3A cells
[6] = molecular target: proteins of U3A human fibrosarcoma cells (4462 proteins detected) (Homo sapiens, UniProt P23396); conditions: protein RPS3; soluble abundance after heat, U3A cells
[7] = molecular target: proteins of U3A human fibrosarcoma cells (4462 proteins detected) (Homo sapiens, UniProt P26440); conditions: protein IVD, U3A cells
Sequence of proteins of U3A human fibrosarcoma cells (4462 proteins detected) (Homo sapiens, UniProt P26440) (P26440 33-426): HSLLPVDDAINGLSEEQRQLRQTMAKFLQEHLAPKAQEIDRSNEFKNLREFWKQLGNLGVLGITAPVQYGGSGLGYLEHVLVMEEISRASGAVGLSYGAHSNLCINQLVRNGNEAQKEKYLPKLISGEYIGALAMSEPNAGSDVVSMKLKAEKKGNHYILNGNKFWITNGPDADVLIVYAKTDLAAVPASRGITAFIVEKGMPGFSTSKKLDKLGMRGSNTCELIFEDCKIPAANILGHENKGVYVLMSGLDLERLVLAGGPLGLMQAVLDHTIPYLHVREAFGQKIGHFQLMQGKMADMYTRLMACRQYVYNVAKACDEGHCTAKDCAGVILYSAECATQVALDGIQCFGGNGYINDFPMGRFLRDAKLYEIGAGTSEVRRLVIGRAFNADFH

[8] = molecular target: proteins of U3A human fibrosarcoma cells (4462 proteins detected) (Homo sapiens, UniProt P41229); conditions: protein KDM5C; U3A cells
[9] = molecular target: proteins of U3A human fibrosarcoma cells (4462 proteins detected) (Homo sapiens, UniProt P49321); conditions: protein NASP, U3A cells
Sequence of proteins of U3A human fibrosarcoma cells (4462 proteins detected) (Homo sapiens, UniProt P49321) (P49321 whole entry): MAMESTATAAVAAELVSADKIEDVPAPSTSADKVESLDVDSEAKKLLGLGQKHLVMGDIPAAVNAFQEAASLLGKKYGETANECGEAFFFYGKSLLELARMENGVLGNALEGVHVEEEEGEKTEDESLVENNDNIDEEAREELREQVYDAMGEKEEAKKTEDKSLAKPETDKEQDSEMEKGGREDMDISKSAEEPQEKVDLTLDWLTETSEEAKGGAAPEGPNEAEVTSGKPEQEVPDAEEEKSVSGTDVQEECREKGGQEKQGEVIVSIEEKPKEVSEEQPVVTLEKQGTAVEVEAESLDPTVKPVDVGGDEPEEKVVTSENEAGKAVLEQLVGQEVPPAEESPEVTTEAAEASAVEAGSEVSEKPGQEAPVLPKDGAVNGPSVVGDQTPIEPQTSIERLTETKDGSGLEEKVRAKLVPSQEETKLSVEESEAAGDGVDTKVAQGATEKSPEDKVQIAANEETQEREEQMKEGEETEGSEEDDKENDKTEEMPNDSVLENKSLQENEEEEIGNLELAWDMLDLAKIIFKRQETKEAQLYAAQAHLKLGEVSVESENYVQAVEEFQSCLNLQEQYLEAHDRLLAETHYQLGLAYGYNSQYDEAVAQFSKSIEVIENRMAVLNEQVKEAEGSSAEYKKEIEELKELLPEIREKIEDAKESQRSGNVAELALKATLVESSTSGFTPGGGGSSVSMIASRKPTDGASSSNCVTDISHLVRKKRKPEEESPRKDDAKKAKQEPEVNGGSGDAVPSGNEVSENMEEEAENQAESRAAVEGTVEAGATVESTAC

[10] = molecular target: proteins of U3A human fibrosarcoma cells (4462 proteins detected) (Homo sapiens, UniProt P49459); conditions: protein UBE2A, U3A cells
Sequence of proteins of U3A human fibrosarcoma cells (4462 proteins detected) (Homo sapiens, UniProt P49459) (P49459 whole entry): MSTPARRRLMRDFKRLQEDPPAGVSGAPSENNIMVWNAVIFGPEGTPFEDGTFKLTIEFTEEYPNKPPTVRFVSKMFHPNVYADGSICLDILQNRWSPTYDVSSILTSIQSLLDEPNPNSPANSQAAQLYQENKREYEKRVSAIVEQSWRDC

[11] = molecular target: proteins of U3A human fibrosarcoma cells (4462 proteins detected) (Homo sapiens, UniProt P57105); conditions: protein SYNJ2BP-COX16; SYNJ2BP, U3A cells
Sequence of proteins of U3A human fibrosarcoma cells (4462 proteins detected) (Homo sapiens, UniProt P57105) (P57105 whole entry): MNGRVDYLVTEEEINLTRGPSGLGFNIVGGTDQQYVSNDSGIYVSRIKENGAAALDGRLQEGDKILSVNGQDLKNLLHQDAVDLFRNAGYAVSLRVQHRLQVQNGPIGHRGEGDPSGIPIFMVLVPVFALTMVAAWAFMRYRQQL

[12] = molecular target: proteins of U3A human fibrosarcoma cells (4462 proteins detected) (Homo sapiens, UniProt P62857); conditions: protein RPS28, U3A cells
[13] = molecular target: proteins of U3A human fibrosarcoma cells (4462 proteins detected) (Homo sapiens, UniProt Q15382); conditions: protein RHEB; U3A, 10 μM, 2 h
[14] = molecular target: proteins of U3A human fibrosarcoma cells (4462 proteins detected) (Homo sapiens, UniProt Q15428); conditions: protein SF3A2; U3A cells
[15] = molecular target: proteins of U3A human fibrosarcoma cells (4462 proteins detected) (Homo sapiens, UniProt Q16626); conditions: protein MEA1, U3A cells
Sequence of proteins of U3A human fibrosarcoma cells (4462 proteins detected) (Homo sapiens, UniProt Q16626) (Q16626 whole entry): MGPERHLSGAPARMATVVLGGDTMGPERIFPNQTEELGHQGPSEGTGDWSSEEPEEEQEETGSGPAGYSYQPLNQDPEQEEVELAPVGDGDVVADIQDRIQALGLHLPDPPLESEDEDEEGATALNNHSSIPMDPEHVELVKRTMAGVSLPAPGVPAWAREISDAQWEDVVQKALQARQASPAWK

[16] = molecular target: proteins of U3A human fibrosarcoma cells (4462 proteins detected) (Homo sapiens, UniProt Q6AI12); conditions: protein ANKRD40, U3A cells
[17] = molecular target: proteins of U3A human fibrosarcoma cells (4462 proteins detected) (Homo sapiens, UniProt Q6P1N0); conditions: protein CC2D1A; soluble abundance after heat, U3A cells
[18] = molecular target: proteins of U3A human fibrosarcoma cells (4462 proteins detected) (Homo sapiens, UniProt Q8IUD2); conditions: protein ERC1, U3A cells
[19] = molecular target: proteins of U3A human fibrosarcoma cells (4462 proteins detected) (Homo sapiens, UniProt Q8NCA5); conditions: protein FAM98A; U3A cells
[20] = molecular target: proteins of U3A human fibrosarcoma cells (4462 proteins detected) (Homo sapiens, UniProt Q8NDC0); conditions: protein MAPK1IP1L; U3A cells
Sequence of proteins of U3A human fibrosarcoma cells (4462 proteins detected) (Homo sapiens, UniProt Q8NDC0) (Q8NDC0 whole entry): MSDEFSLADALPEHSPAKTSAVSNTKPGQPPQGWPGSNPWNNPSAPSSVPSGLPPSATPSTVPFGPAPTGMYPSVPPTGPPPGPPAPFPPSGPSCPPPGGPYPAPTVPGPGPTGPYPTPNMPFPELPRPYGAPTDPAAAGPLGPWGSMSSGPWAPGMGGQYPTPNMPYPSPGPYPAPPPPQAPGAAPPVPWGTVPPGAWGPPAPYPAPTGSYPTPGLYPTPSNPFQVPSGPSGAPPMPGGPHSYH

[21] = molecular target: proteins of U3A human fibrosarcoma cells (4462 proteins detected) (Homo sapiens, UniProt Q8TF74); conditions: protein WIPF2, U3A cells
Sequence of proteins of U3A human fibrosarcoma cells (4462 proteins detected) (Homo sapiens, UniProt Q8TF74) (Q8TF74 whole entry): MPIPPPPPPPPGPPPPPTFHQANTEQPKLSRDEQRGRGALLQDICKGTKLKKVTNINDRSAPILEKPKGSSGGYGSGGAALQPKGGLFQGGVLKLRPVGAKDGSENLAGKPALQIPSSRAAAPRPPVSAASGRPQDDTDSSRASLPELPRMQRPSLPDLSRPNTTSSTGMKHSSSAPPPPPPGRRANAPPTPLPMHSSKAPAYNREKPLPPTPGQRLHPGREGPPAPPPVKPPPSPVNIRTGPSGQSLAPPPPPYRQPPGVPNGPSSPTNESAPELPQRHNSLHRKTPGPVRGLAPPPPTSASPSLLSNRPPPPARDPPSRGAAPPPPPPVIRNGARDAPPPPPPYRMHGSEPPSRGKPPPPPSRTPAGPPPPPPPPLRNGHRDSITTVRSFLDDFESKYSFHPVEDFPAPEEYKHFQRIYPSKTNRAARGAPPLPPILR

[22] = molecular target: proteins of U3A human fibrosarcoma cells (4462 proteins detected) (Homo sapiens, UniProt Q96SN8); conditions: protein CDK5RAP2; U3A, 10 μM, 2 h
[23] = molecular target: proteins of U3A human fibrosarcoma cells (4462 proteins detected) (Homo sapiens, UniProt Q99832); conditions: protein CCT7; U3A cells
Sequence of proteins of U3A human fibrosarcoma cells (4462 proteins detected) (Homo sapiens, UniProt Q99832) (Q99832 whole entry): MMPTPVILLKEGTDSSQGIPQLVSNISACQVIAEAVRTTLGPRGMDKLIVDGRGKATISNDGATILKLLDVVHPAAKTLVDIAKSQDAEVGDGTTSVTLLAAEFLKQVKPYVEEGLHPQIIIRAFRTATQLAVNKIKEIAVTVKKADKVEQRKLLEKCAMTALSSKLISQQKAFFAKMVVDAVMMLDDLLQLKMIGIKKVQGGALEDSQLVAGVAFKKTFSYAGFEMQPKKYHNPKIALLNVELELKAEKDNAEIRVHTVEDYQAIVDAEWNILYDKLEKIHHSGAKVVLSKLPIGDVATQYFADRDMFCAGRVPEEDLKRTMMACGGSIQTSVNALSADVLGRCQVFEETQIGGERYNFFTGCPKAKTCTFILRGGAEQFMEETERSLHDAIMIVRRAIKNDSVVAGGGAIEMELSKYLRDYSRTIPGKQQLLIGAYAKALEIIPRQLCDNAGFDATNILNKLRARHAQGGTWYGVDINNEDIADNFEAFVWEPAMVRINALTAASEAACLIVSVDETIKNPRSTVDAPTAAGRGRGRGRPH

[24] = molecular target: proteins of U3A human fibrosarcoma cells (4462 proteins detected) (Homo sapiens, UniProt Q9BRA2); conditions: protein TXNDC17, U3A cells
[25] = molecular target: proteins of U3A human fibrosarcoma cells (4462 proteins detected) (Homo sapiens, UniProt Q9H1B7); conditions: protein IRF2BPL; soluble abundance after heat, U3A cells
Sequence of proteins of U3A human fibrosarcoma cells (4462 proteins detected) (Homo sapiens, UniProt Q9H1B7) (Q9H1B7 whole entry): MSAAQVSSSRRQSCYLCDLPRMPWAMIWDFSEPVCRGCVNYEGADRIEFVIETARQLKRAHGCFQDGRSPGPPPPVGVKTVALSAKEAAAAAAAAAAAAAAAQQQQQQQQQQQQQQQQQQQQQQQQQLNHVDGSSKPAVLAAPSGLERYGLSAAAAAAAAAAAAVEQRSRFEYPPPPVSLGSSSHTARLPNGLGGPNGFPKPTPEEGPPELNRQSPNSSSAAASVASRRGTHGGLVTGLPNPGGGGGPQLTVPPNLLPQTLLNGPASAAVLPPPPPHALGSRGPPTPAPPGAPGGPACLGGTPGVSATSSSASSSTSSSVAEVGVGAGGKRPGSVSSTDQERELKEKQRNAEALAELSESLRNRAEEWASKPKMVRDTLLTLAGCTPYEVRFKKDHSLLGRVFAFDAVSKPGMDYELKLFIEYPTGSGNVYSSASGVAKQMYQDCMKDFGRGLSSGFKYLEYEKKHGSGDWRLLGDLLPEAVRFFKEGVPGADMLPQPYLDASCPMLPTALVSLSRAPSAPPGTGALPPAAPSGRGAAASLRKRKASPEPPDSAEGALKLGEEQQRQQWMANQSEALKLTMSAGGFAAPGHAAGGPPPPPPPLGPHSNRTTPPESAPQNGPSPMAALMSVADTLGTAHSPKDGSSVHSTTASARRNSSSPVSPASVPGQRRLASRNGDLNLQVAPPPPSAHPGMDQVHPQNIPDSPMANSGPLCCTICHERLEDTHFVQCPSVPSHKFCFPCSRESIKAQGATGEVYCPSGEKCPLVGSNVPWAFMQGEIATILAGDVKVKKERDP

[26] = molecular target: proteins of U3A human fibrosarcoma cells (4462 proteins detected) (Homo sapiens, UniProt Q9H3N1); conditions: protein TMX1; U3A cells
[27] = molecular target: proteins of U3A human fibrosarcoma cells (4462 proteins detected) (Homo sapiens, UniProt Q9H9Q2); conditions: protein COPS7B; U3A cells
[28] = molecular target: proteins of U3A human fibrosarcoma cells (4462 proteins detected) (Homo sapiens, UniProt Q9NZT2); conditions: protein OGFR, U3A cells
Sequence of proteins of U3A human fibrosarcoma cells (4462 proteins detected) (Homo sapiens, UniProt Q9NZT2) (Q9NZT2 whole entry): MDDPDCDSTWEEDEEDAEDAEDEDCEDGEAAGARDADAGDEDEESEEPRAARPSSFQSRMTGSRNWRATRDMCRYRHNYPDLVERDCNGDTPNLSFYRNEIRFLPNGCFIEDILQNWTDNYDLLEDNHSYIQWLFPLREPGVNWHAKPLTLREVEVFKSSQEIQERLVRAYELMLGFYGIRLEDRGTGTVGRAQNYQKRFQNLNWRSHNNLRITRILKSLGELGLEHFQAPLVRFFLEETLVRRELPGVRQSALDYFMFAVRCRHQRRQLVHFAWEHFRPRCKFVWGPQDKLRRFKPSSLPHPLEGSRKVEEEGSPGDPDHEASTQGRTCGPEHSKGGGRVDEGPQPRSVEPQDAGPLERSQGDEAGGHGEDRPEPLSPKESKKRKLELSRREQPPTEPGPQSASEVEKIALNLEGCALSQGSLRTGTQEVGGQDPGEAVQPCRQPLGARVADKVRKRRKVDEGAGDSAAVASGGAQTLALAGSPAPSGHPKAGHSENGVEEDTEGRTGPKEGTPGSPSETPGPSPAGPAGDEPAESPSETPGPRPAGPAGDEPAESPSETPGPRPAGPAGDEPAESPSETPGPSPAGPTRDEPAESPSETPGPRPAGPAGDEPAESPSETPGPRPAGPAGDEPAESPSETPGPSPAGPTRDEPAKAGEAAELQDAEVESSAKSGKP

[29] = molecular target: proteins of U3A human fibrosarcoma cells (4462 proteins detected) (Homo sapiens, UniProt Q9UBV8); conditions: protein PEF1; U3A, 10 μM, 2 h
Sequence of proteins of U3A human fibrosarcoma cells (4462 proteins detected) (Homo sapiens, UniProt Q9UBV8) (Q9UBV8 whole entry): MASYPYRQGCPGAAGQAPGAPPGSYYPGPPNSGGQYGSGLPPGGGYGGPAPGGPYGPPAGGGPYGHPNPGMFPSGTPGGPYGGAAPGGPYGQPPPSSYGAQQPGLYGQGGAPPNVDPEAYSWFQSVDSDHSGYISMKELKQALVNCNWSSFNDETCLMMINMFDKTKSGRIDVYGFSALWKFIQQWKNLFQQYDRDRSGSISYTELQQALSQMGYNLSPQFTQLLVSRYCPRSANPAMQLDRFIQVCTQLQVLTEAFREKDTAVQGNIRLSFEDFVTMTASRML

[30] = molecular target: proteins of U3A human fibrosarcoma cells (4462 proteins detected) (Homo sapiens, UniProt Q9UIJ7); conditions: protein AK3; U3A cells

Sequence of proteins of U3A human fibrosarcoma cells (4462 proteins detected) (Homo sapiens, UniProt O95297) (O95297 36-269): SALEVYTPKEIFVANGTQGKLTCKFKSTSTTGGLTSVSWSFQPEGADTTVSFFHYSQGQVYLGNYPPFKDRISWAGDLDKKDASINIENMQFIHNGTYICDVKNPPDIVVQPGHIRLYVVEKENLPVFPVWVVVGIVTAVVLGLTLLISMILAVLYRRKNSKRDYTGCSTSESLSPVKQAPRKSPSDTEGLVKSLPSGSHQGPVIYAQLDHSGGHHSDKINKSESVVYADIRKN

Compound: CCc1nc(N)nc(N)c1-c1ccc(Cl)cc1 [pyrimethamine]
- Log2 (PYR/DMSO), MPZL1 [1]: 0.25
- Log2 (PYR/DMSO) [2]: -0.04
- Log2 (PYR/DMSO) [3]: 0.19
- Log2 (PYR/DMSO) [4]: 0.14
- Log2 (PYR/DMSO) [5]: 0.22
- Log2 (PYR/DMSO) [6]: 0.13
- Log2 (PYR/DMSO) [7]: -0.05
- Log2 (PYR/DMSO) [8]: 0.18
- Log2 (PYR/DMSO) [9]: -0.04
- Log2 (PYR/DMSO) [10]: -0.04
- Log2 (PYR/DMSO) [11]: -0.03
- Log2 (PYR/DMSO) [12]: -0.05
- Log2 (PYR/DMSO), RHEB [13]: -0.45
- Log2 (PYR/DMSO) [14]: 0.20
- Log2 (PYR/DMSO) [15]: -0.04
- Log2 (PYR/DMSO) [16]: -0.04
- Log2 (PYR/DMSO) [17]: 0.15
- Log2 (PYR/DMSO) [18]: -0.04
- Log2 (PYR/DMSO) [19]: 0.24
- Log2 (PYR/DMSO) [20]: 0.22
- Log2 (PYR/DMSO) [21]: -0.05
- Log2 (PYR/DMSO), CDK5RAP2 [22]: -0.21
- Log2 (PYR/DMSO) [23]: 0.18
- Log2 (PYR/DMSO) [24]: -0.05
- Log2 (PYR/DMSO) [25]: 0.14
- Log2 (PYR/DMSO) [26]: 0.20
- Log2 (PYR/DMSO) [27]: 0.19
- Log2 (PYR/DMSO) [28]: -0.04
- Log2 (PYR/DMSO), PEF1 [29]: 0.24
- Log2 (PYR/DMSO) [30]: 0.16
